Data taken from US10385031B2, “Substituted piperazines as selective HDAC1,2 inhibitors” (Regenacy Pharmaceuticals, LLC, priority 2016, dated 2019).

Assays:
hERG = hERG (Homo sapiens (Human), UniProt Q12809); assay: hERG inhibition, whole-cell patch clamp; assay type: cell-based; conditions: HEK293 cells stably transfected with hERG, 34 °C, tail current
Experimental: For hERG inhibition assays, the cells used were HEK293 cells stably transfected with hERG (cell line obtained from Cytocentrics Inc. 3463 Magic Drive San Antonio, Tex. 78229). Composition of External Solution: NaCl, 137 mM; KCl, 4 mM; MgCl2, 1.0 mM; CaCl2, 1.8 mM; HEPES 10 mM; Dextrose 11 mM; Adjusted to a pH of 7.4 with NaOH. Composition of Internal Solution: KCl, 130.0 mM; MgCl2, 1.0 mM; HEPES, 5.0 mM; EGTA, 5.0 mM; NaCl 7.0 mM. Adjusted to a pH of 7.2 using KOH. Test Concentrations: 0.1, 1, 10, 100 μM. Vehicle: DMSO. Experiments were performed at 34+/−1° C. Current was recorded using the whole-cell patch clamp technique on the Cytopatch automated platform. hERG current was elicited with the following voltage protocol: hERG current amplitude was measured as the peak current at −50 mV (tail current). […] Each cell served as its own control. Data are presented as the IC50 calculated by non-linear regression analysis.

[1] = test system: CYP1A2, CYP2C9, CYP2C19, CYP3A4, CYP2D6; assay: Cyp inhibition in human liver microsomes (all isozymes); assay type: in vitro ADME
Experimental: (§1) For Cyp inhibition, human liver microsomes from BD Gentest were incubated with Compound 028 or Compound 032 (10, 3.33, 1.11, 0.37, 0.12, 0.04, 0.01 μM) and substrate (CYP1A2: Phenacetin at 30 μM; CYP2C9: Diclofenac at 10 μM; CYP2C19: S-Mephenytoin at 35 μM; CYP3A4: Midazolam at 5 μM and Testosterone at 80 μM; CYP2D6: Bufuralol at 10 μM) for the following incubation times: CYP1A2, 2C9, 2D6: 10 minutes, 37° C.; CYP2C19: 45 minutes, 37° C.; CYP3A4: 5 minutes, 37° C. Substrate conversion was measured by liquid chromatography/mass spectrometry/mass spectrometry (LC/MS/MS). Inhibition was calculated by curve fitting in Graph Pad Prism.

[2] = Rat pharmacokinetics, cassette dosing (IV and PO); assay type: in vivo; conditions: rat, plasma, male SD rats; for bioavailability: 5 mg/kg, oral AUC to IV AUC, dose adjusted; for IV clearance: IV 1 mg/kg; for AUC / Cmax / half-life: PO 5 mg/kg; for half-life: read-out: PO T½ (converted)
Experimental: Male SD rats were fasted overnight. Compounds of the invention were dissolved in dimethyl acetamide at 10 times the final concentration, then Solutol HS 15 (BASF) was added to a final concentration of 10%. Finally 80% saline was added and vortexed to achieve a clear solution. For the IV dosing three animals were injected via the foot dorsal vein with 1 mg/kg compound. For the PO dosing 5 mg/kg of compound was delivered by oral gavage. Blood was collected via the tail vein into K2EDTA tubes at 5 minutes, 15 minutes, 30 minutes, 1 hour, 2 hours, 4 hours, 8 hours and 24 hours after dosing. The blood was centrifuged at 2000 g for 5 minutes at 4° C. to obtain plasma. The plasma was extracted with acetonitrile and the level of compound was analyzed by LC/MS/MS. The level of compound in plasma was calculated from a standard curve in rat plasma. The IV clearance (L/h/kg) and area under the curve (h*ng/mL) were calculated using WinNonLin software. The dose adjusted area under the curve for the IV and oral dosing were used to calculate the oral bioavailability.
Pharmacokinetic properties were assessed in a rat cassette dosing experiment. The IV clearance (IV Clr.) is in units of L/hr/kg. The oral maximum plasma concentration (PO Cmax) is in units of ng/ml. The oral plasma half-life (PO T½) is in units of hours. The oral area under the curve (PO AUC) is in units of hours*ng/ml. The fraction absorbed by the oral route (F %) is a percentage of the oral area under the curve to the IV area under the curve, dose adjusted.

CYP3A4 = CYP3A4 (Homo sapiens (Human), UniProt P08684); assay: Cyp inhibition in human liver microsomes (3A4/midazolam); assay type: in vitro ADME
Experimental: as §1, with “CYP2C9:” for “For Cyp inhibition, human liver microsomes from BD Gentest were incubated with Compound 028 or Compound 032 (10, 3.33, 1.11, 0.37, 0.12, 0.04, 0.01 μM) and substrate (CYP1A2: Phenacetin at 30 μM; CYP2C9:”

Sequence of hERG (Q12809 whole entry): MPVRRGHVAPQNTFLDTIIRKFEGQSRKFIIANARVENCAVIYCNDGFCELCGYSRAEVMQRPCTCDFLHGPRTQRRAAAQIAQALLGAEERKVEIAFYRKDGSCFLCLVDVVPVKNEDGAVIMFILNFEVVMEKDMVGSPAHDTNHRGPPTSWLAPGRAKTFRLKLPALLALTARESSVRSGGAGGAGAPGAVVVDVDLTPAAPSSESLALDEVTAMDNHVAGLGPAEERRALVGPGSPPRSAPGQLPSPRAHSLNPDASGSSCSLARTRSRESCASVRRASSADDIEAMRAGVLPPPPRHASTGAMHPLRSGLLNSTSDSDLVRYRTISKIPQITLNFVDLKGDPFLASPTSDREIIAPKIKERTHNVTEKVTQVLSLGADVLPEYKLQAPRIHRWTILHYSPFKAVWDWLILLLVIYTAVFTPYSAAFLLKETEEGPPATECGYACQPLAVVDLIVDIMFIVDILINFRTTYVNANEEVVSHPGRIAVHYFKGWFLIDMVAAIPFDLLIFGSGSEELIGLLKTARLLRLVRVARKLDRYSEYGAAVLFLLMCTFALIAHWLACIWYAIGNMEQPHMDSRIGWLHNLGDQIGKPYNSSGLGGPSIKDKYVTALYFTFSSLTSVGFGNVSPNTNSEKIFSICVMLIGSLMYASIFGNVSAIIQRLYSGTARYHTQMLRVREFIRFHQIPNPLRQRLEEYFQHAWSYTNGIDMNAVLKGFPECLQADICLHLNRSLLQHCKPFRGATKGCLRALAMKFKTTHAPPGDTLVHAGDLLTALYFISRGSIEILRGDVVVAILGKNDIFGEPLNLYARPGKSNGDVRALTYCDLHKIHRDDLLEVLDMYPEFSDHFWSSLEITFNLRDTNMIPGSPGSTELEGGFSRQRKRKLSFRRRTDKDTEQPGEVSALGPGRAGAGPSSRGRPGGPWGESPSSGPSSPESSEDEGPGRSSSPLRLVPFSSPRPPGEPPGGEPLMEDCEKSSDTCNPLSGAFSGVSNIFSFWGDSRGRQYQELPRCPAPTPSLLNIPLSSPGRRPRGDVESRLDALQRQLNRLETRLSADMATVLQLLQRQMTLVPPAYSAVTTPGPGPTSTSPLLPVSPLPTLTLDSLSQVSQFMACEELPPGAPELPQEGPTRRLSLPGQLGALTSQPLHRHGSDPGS
Sequence of CYP3A4 (P08684 whole entry): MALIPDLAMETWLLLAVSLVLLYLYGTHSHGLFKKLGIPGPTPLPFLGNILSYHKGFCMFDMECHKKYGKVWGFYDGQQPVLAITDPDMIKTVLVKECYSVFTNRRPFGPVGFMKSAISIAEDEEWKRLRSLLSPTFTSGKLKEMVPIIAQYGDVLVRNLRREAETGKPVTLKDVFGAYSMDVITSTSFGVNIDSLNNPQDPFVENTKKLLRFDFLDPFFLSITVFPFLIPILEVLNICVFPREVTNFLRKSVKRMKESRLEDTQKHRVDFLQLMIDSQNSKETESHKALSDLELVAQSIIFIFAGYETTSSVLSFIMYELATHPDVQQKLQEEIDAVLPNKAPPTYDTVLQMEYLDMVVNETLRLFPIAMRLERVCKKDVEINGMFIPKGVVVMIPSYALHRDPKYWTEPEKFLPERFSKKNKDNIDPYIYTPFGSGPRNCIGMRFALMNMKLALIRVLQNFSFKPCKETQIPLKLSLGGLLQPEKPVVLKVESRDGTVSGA

| IC50 [1] | bioavailability [2] | IV clearance [2] | AUC [2] | Cmax [2] | half-life [2] | SMILES | IC50 (hERG) | IC50 (CYP3A4) |
| --- | --- | --- | --- | --- | --- | --- | --- | --- |
| > 10 µM | 77% | 3.17 mL/min/kg | 19100 ng·h/mL | 1910 ng/mL | 5 h | Nc1ccc(-c2ccco2)cc1NC(=O)c1ccc2nc(N3CCNCC3)ccc2c1 [Compound 003] | 7.6 µM |  |
| > 10 µM | 195% | 16.3 mL/min/kg | 8180 ng·h/mL | 517 ng/mL | 13.5 h | Nc1ccc(-c2ccccc2)cc1NC(=O)c1cc2ccc(N3CCNCC3)cc2cn1 [Compound 022] | 0.4 µM |  |
| > 10 µM | 78.6% | 10.5 mL/min/kg | 6190 ng·h/mL | 839 ng/mL | 3 h | CN1CCN(c2ccc(C(=O)Nc3cc(-c4ccncc4)ccc3N)cn2)CC1 [Compound 027] | > 100 µM |  |
|  |  |  |  |  |  | CN1CCN(c2ccc(C(=O)Nc3cc(-c4ccncc4)ccc3N)nc2)CC1 [Compound 028] | 38 µM | 5.9 µM |
| > 10 µM |  |  |  |  |  | Cc1nc(N2CCNCC2)sc1C(=O)Nc1cc(-c2cccs2)ccc1N [Compound 031] | 12 µM |  |
|  | 9.7% | 17.7 mL/min/kg | 456 ng·h/mL | 173 ng/mL | 4.3 h | Nc1ccc(-c2ccncc2)cc1NC(=O)c1cnc(N2CCNCC2)s1 [Compound 032] | 12 µM | 9.5 µM |
